Experimental data reported in patent US20170037008A1, “PHENYL BENZYL ETHER DERIVATIVE AND PREPARATION METHOD AND APPLICATION THEREOF” (BEIJING ZHIBO BIO-MEDICAL TECHNOLOGY CO., LTD, priority 2013, published 2017).

Tests used:
logD of labeled ligands = assay type: physicochemical
[1] = Biological distribution in bodies of normal mice; assay type: in vivo, mice (ICR); conditions: caudal vein injection
Source text: Through in-vivo distribution experiments, pharmacokinetic features, especially initial bran intake and brain removal situations of ^18F or ^125I labeled compounds in the bodies of mice are studied. […] Data are expressed in radioactive percentage dosage per organ (% ID/organ) and radioactive percentage dosage per gram of organ (% ID/g).

| Compound | logD (logD of labeled ligands) | Blood ([1]; 2 min) | Bone ([1]; 2 min) | Brain ([1]; 2 min) | Blood ([1]; 10 min) | Bone ([1]; 10 min) | Brain ([1]; 10 min) | Blood ([1]; 30 min) | Bone ([1]; 30 min) | Brain ([1]; 30 min) | Blood ([1]; 60 min) | Bone ([1]; 60 min) | Brain ([1]; 60 min) | Thyroid ([1]; 2 min) | Thyroid ([1]; 10 min) | Thyroid ([1]; 30 min) | Thyroid ([1]; 60 min) |
| --- | --- | --- | --- | --- | --- | --- | --- | --- | --- | --- | --- | --- | --- | --- | --- | --- | --- |
| COc1ccc(OCc2ccc(OCC[18F])cc2)cc1 [[^18F]44a] | [^18F]44a (logD = 3.05 ± 0.08) | 3.90 ± 0.25 % ID/g | 1.50 ± 0.44 % ID/organ | 7.54 ± 0.39 % ID/g | 3.86 ± 0.24 % ID/g | 1.04 ± 0.25 % ID/organ | 3.32 ± 0.38 % ID/g | 4.28 ± 0.23 % ID/g | 1.43 ± 0.44 % ID/organ | 2.77 ± 0.22 % ID/g | 3.86 ± 0.39 % ID/g | 4.05 ± 0.62 % ID/organ | 2.33 ± 0.30 % ID/g |  |  |  |  |
| FCCOc1ccc(OCc2ccc([125I])cc2)cc1 [[^125I]31a] | [^125I]31a (logD = 3.96 ± 0.22) | 5.03 ± 0.20 % ID/g |  | 7.04 ± 0.89 % ID/g | 3.03 ± 0.48 % ID/g |  | 2.73 ± 0.25 % ID/g | 2.17 ± 0.31 % ID/g |  | 1.05 ± 0.22 % ID/g |  |  | 0.55 ± 0.11 % ID/g | 0.12 ± 0.02 % ID/organ | 0.09 ± 0.02 % ID/organ | 0.12 ± 0.01 % ID/organ | 0.16 ± 0.03 % ID/organ |
| COc1ccc(OCc2ccc([125I])cc2)cc1 [[^125I]4] | [^125I]4 (logD = 4.00 ± 0.08) | 3.03 ± 0.54 % ID/g |  | 6.18 ± 0.99 % ID/g | 3.32 ± 0.65 % ID/g |  | 3.54 ± 0.35 % ID/g | 2.56 ± 0.93 % ID/g |  | 0.88 ± 0.15 % ID/g | 1.70 ± 0.50 % ID/g |  | 0.38 ± 0.05 % ID/g | 0.14 ± 0.04 % ID/organ | 0.12 ± 0.04 % ID/organ | 0.08 ± 0.01 % ID/organ | 0.11 ± 0.02 % ID/organ |
| CN(C)c1ccc(OCc2ccc([125I])cc2)cc1 [[^125I]22] | [^125I]22 (logD = 2.89 ± 0.09) | 4.01 ± 0.28 % ID/g |  | 4.91 ± 0.60 % ID/g | 2.46 ± 0.30 % ID/g |  | 3.26 ± 0.24 % ID/g | 2.53 ± 0.27 % ID/g |  | 1.34 ± 0.12 % ID/g | 1.34 ± 0.26 % ID/g |  | 0.49 ± 0.07 % ID/g | 0.11 ± 0.03 % ID/organ | 0.12 ± 0.03 % ID/organ | 0.16 ± 0.04 % ID/organ | 0.27 ± 0.04 % ID/organ |
